Where two headings read alike, the source gives them in different places.
System: HCV pseudoparticles (genotype 1a HCV E1 and E2 envelope, H77C isolate)
Experiment: microbe, parasite or virus in culture
Format: cell-based
Conditions: Hepatitis C virus
[1] = Huh-7, 48 h, HCV pseudoparticle infection of Huh7 cells, luciferase 2 days after infection, average of duplicates
[2] = Huh-7, 48 h, read-out: Activity (EC50 class), HCV pseudoparticle infection of Huh7 cells, luciferase 2 days after infection, EC50 expressed as class A/B
[3] = Huh-7, 48 h, HCV pseudoparticles, Huh7 cells, luciferase 2 days after infection, average of duplicates
[4] = Huh-7, 48 h, read-out: Activity (EC50 class), HCV pseudoparticles, Huh7 cells, luciferase 2 days after infection, average of duplicates
[5] = Huh-7, 48 h, HCV pseudoparticles (genotype 1a, H77C) in Huh7 cells, average of duplicate, luciferase 2 days after infection
[6] = Huh-7, read-out: Activity (EC50 class), HCV pseudoparticles (genotype 1a, H77C) in Huh7 cells, EC50 expressed as class A/B

| Structure (SMILES) | EC50 [2] [nM] | EC50 [6] [nM] | also measured |
| --- | --- | --- | --- |
| COc1cccc(CNC(=O)C(=O)NC[C@H](NC(=O)c2ccc(Nc3nc(NC4(c5ccc(Cl)cc5)CC4)nc(OCC(F)(F)F)n3)cc2)C(=O)O)c1 [Compound 1193] | 0.01 to 10 |  | EC50 [1]: 0.52 nM |
| CC(F)Oc1cccc(NC(=O)C(=O)NCC[C@H](NC(=O)c2ccc(Nc3nc(NC4(c5ccc(Cl)cc5)CC4)nc(OCC(F)(F)F)n3)cc2)C(=O)O)c1 (stereo partly shown) [Compound 3633] |  |  | EC50 [3]: 0.058 nM; EC50 [4]: 0.01 to 10 nM |
| O=C(NCC[C@H](NC(=O)c1ccc(Nc2nc(NC3(c4ccc(Cl)cc4)CC3)nc(OCC(F)(F)F)n2)cc1)C(=O)O)C(=O)Nc1cccc(OC(F)(F)F)c1 [Compound 3619] |  |  | EC50 [3]: 0.084 nM; EC50 [4]: 0.01 to 10 nM |
| COC(=O)[C@H](CNC(=O)C(=O)Nc1ccc(N2CCCC2)nc1)NC(=O)c1ccc(Nc2nc(NC3(c4ccc(Cl)cc4)CC3)nc(OCC(F)(F)F)n2)cc1 [Compound 3721] |  |  | EC50 [4]: 0.01 to 10 nM |
| COC(=O)[C@H](CCNC(=O)C(=O)Nc1ccc(N2CC(C)OC(C)C2)cc1)NC(=O)c1ccc(Nc2nc(NC3(c4ccc(Cl)cc4)CC3)nc(OCC(F)(F)F)n2)cc1 (stereo partly shown) [Compound 3121] |  | 0.01 to 10 | EC50 [5]: 3.39 nM |
| COC(=O)/C(CCNC(=O)C(=O)Nc1ccc(N2CCOCC2)nc1)=N\C(=O)c1ccc(Nc2nc(NC3(c4ccc(Cl)cc4)CC3)nc(OCC(F)(F)F)n2)cc1 [Compound 3585] |  | 0.01 to 10 |  |
| Cc1cc(NC(=O)C(=O)NCC(C)CNC(=O)c2ccc(Nc3nc(NC4(c5ccc(Cl)cc5)CC4)nc(OCC(F)(F)F)n3)cc2)no1 (stereo not shown) [Compound 3334] |  | 0.01 to 10 | EC50 [5]: 0.062 nM |
| COC(=O)[C@H](CNC(=O)C(=O)Nc1ccc(C(N)=O)cc1)NC(=O)c1ccc(Nc2nc(NC3(c4ccc(Cl)cc4)CC3)nc(OCC(F)(F)F)n2)cc1 [Compound 3088] |  | 0.01 to 10 |  |
| CC1CCCCC1NC(=O)C(=O)NCC[C@H](NC(=O)c1ccc(Nc2nc(NC3(c4ccc(Cl)cc4)CC3)nc(OCC(F)(F)F)n2)cc1)C(=O)O (stereo partly shown) [Compound 1124] | 0.01 to 10 |  |  |
| CCN(CC)CCNC(=O)c1ccc(NC(=O)C(=O)NCC[C@H](NC(=O)c2ccc(Nc3nc(NC4(c5ccc(Cl)cc5)CC4)nc(OCC(F)(F)F)n3)cc2)C(=O)OC)cc1 [Compound 3117] |  | 0.01 to 10 |  |
| CC(C)(CNC(=O)C(=O)Nc1cccc(C(=O)Nc2ccccc2)c1)CNC(=O)c1ccc(Nc2nc(NC3(c4ccc(Cl)cc4)CC3)nc(OCC(F)(F)F)n2)cc1 [Compound 3669] |  |  | EC50 [4]: 0.01 to 10 nM |
| COC(=O)[C@H](CCNC(=O)C(=O)Nc1ccc(C2CCCCC2)cc1)NC(=O)c1ccc(Nc2nc(NC3(c4ccc(Cl)cc4)CC3)nc(OCC(F)(F)F)n2)cc1 [Compound 3111] |  | 0.01 to 10 |  |
| CC(C)(C)OC(=O)NC1CCCC(NC(=O)C(=O)NC[C@H](NC(=O)c2ccc(Nc3nc(NC4(c5ccc(Cl)cc5)CC4)nc(OCC(F)(F)F)n3)cc2)C(=O)O)C1 (stereo partly shown) [Compound 1083] | 0.01 to 10 |  | EC50 [1]: 1.78 nM |
| COC(=O)[C@H](CNC(=O)C(=O)NCCc1ccc(F)cc1)NC(=O)c1ccc(Nc2nc(NC3(c4ccc(Cl)cc4)CC3)nc(OCC(F)(F)F)n2)cc1 [Compound 1292] | 0.01 to 10 |  |  |
| COC(=O)[C@H](CCNC(=O)C(=O)Nc1ccc(CCO)cc1)NC(=O)c1ccc(Nc2nc(NC3(c4ccc(Cl)cc4)CC3)nc(OCC(F)(F)F)n2)cc1 [Compound 3218] |  | 0.01 to 10 |  |
| CC(C)(CNC(=O)C(=O)Nc1ccc(C(=O)N2CCCCC2)cc1)CNC(=O)c1ccc(Nc2nc(NC3(c4ccc(Cl)cc4)CC3)nc(OCC(F)(F)F)n2)cc1 [Compound 1568] | 0.01 to 10 |  |  |
| Cc1cc(NC(=O)C(=O)N(C)CCCNC(=O)c2ccc(Nc3nc(NC4(c5ccc(Cl)cc5)CC4)nc(OCC(F)(F)F)n3)cc2)no1 [Compound 3446] |  | 0.01 to 10 |  |
| COC(=O)[C@H](CNC(=O)C(=O)NCCc1ccccc1OC)NC(=O)c1ccc(Nc2nc(NC3(c4ccc(Cl)cc4)CC3)nc(OCC(F)(F)F)n2)cc1 [Compound 1285] | 0.01 to 10 |  |  |
| Cn1ncc2ccc(NC(=O)C(=O)NCC(C)(C)CNC(=O)c3ccc(Nc4nc(NC5(c6ccc(Cl)cc6)CC5)nc(OCC(F)(F)F)n4)cc3)cc21 [Compound 3024] |  | 0.01 to 10 |  |
| CC(C)(CNC(=O)C(=O)Nc1cccc(C(=N)N)c1)CNC(=O)c1ccc(Nc2nc(NC3(c4ccc(Cl)cc4)CC3)nc(OCC(F)(F)F)n2)cc1 [Compound 3041] |  | 0.01 to 10 | EC50 [5]: 0.068 nM |
| C[C@H](NC(=O)C(=O)NCC[C@H](NC(=O)c1ccc(Nc2nc(NC3(c4ccc(Cl)cc4)CC3)nc(OCC(F)(F)F)n2)cc1)C(=O)O)C1CCCCC1 [Compound 1212] | 0.01 to 10 |  | EC50 [1]: 0.07 nM |
| COC(=O)[C@H](CNC(=O)C(=O)Nc1ccc(-c2ccno2)cc1)NC(=O)c1ccc(Nc2nc(NC3(c4ccc(Cl)cc4)CC3)nc(OCC(F)(F)F)n2)cc1 [Compound 3199] |  | 0.01 to 10 |  |
| COC(=O)C(CNC(=O)C(=O)NC1CCC(O)CC1)NC(=O)c1ccc(Nc2nc(NC3(c4ccc(Cl)cc4)CC3)nc(OCC(F)(F)F)n2)cc1 (stereo not shown) [Compound 1048] | 0.01 to 10 |  |  |

| Structure (SMILES) | EC50 [2] [nM] | EC50 [6] [nM] | also measured |
| --- | --- | --- | --- |
| COC(=O)[C@H](CNC(=O)C(=O)Nc1ccc(N2CCN(C(C)=O)CC2)cc1)NC(=O)c1ccc(Nc2nc(NC3(c4ccc(Cl)cc4)CC3)nc(OCC(F)(F)F)n2)cc1 [Compound 3186] |  | 0.01 to 10 | EC50 [5]: 0.7 nM |
| COC(=O)[C@H](CCNC(=O)C(=O)NCCc1c[nH]cn1)NC(=O)c1ccc(Nc2nc(NC3(c4ccc(Cl)cc4)CC3)nc(OCC(F)(F)F)n2)cc1 [Compound 1318] | 0.01 to 10 |  |  |
| Cc1cc(NC(=O)C(=O)NCC(C)(C)CNC(=O)c2ccc(Nc3nc(NC4(c5ccc(Cl)cc5)CC4)nc(OCC(F)(F)F)n3)cc2)no1 [Compound 1548] | 0.01 to 10 |  |  |
| COC(=O)[C@@H](CCNC(=O)C(=O)Nc1cccc(-c2cnco2)c1)NC(=O)c1ccc(Nc2nc(NC3(c4ccc(Cl)cc4)CC3)nc(OCC(F)(F)F)n2)cc1 [Compound 3579] |  | 0.01 to 10 |  |
| CCOc1ccc(NC(=O)C(=O)NCC(C)(C)CNC(=O)c2ccc(Nc3nc(NC4(c5ccc(Cl)cc5)CC4)nc(OCC(F)(F)F)n3)cc2)cc1 [Compound 3062] |  | 0.01 to 10 |  |
| CC(C)(CNC(=O)C(=O)Nc1cccc(C(=O)c2cccc(N)c2)c1)CNC(=O)c1ccc(Nc2nc(NC3(c4ccc(Cl)cc4)CC3)nc(OCC(F)(F)F)n2)cc1 [Compound 3400] |  | 0.01 to 10 |  |
| CC(C)(CNC(=O)C(=O)Nc1ccc(Cl)c(Cl)c1)CNC(=O)c1ccc(Nc2nc(NC3(c4ccc(Cl)cc4)CC3)nc(OCC(F)(F)F)n2)cc1 [Compound 3793] |  |  | EC50 [4]: 0.01 to 10 nM |
| O=C(NCC[C@H](NC(=O)c1ccc(Nc2nc(NC3(c4ccc(Cl)cc4)CC3)nc(OCC(F)(F)F)n2)cc1)C(=O)O)C(=O)NCC1CC1c1cccc(F)c1 (stereo partly shown) [Compound 1448] | 0.01 to 10 |  |  |
| CCc1ccc(NC(=O)C(=O)NC[C@H](NC(=O)c2ccc(Nc3nc(NC4(c5ccc(Cl)cc5)CC4)nc(OCC(F)(F)F)n3)cc2)C(=O)O)cc1 [Compound 3296] |  | 0.01 to 10 | EC50 [5]: 0.24 nM |
| COC(=O)[C@@H](CCNC(=O)C(=O)Nc1ccc(Oc2ccc(Cl)cc2Cl)nc1)NC(=O)c1ccc(Nc2nc(NC3(c4ccc(Cl)cc4)CC3)nc(OCC(F)(F)F)n2)cc1 [Compound 3580] |  | 10 to 1000 |  |
| COC(=O)[C@@H](CCNC(=O)C(=O)Nc1cccc(-c2ccnc(C)n2)c1)NC(=O)c1ccc(Nc2nc(NC3(c4ccc(Cl)cc4)CC3)nc(OCC(F)(F)F)n2)cc1 [Compound 3583] |  | 0.01 to 10 |  |
| CC(NC(=O)C(=O)NCC[C@H](NC(=O)c1ccc(Nc2nc(NC3(c4ccc(Cl)cc4)CC3)nc(OCC(F)(F)F)n2)cc1)C(=O)O)C1CC1 (stereo partly shown) [Compound 1440] | 0.01 to 10 |  |  |
| O=C(NCC[C@H](NC(=O)c1ccc(Nc2nc(NC3(c4ccc(Cl)cc4)CC3)nc(OCC(F)(F)F)n2)cc1)C(=O)O)C(=O)Nc1ccc(Oc2ccncc2)cc1 [Compound 3544] |  | 10 to 1000 |  |
| COC(=O)[C@H](CCNC(=O)C(=O)NCCc1ccc(F)cc1)NC(=O)c1ccc(Nc2nc(NC3(c4ccc(Cl)cc4)CC3)nc(OCC(F)(F)F)n2)cc1 [Compound 1315] | 0.01 to 10 |  | EC50 [1]: 1.03 nM |
| CCOc1ccc(NC(=O)C(=O)NC[C@H](NC(=O)c2ccc(Nc3nc(NC4(c5ccc(Cl)cc5)CC4)nc(OCC(F)(F)F)n3)cc2)C(=O)O)cc1 [Compound 3293] |  | 0.01 to 10 |  |
| O=C(NC[C@H](NC(=O)c1ccc(Nc2nc(NC3(c4ccc(Cl)cc4)CC3)nc(OCC(F)(F)F)n2)cc1)C(=O)O)C(=O)Nc1ccc(Oc2ccncc2)cc1 [Compound 3289] |  | 0.01 to 10 | EC50 [5]: 2.53 nM |
| CS(=O)(=O)c1cccc(NC(=O)C(=O)NC[C@H](NC(=O)c2ccc(Nc3nc(NC4(c5ccc(Cl)cc5)CC4)nc(OCC(F)(F)F)n3)cc2)C(=O)O)c1 [Compound 3763] |  |  | EC50 [4]: 0.01 to 10 nM |
| CC1CCC(NC(=O)C(=O)NCC[C@H](NC(=O)c2ccc(Nc3nc(NC4(c5ccc(Cl)cc5)CC4)nc(OCC(F)(F)F)n3)cc2)C(=O)O)CC1 (stereo partly shown) [Compound 1129] | 0.01 to 10 |  |  |
| C=Cc1ccccc1NC(=O)C(=O)NCC(C)(C)CNC(=O)c1ccc(Nc2nc(NC3(c4ccc(Cl)cc4)CC3)nc(OCC(F)(F)F)n2)cc1 [Compound 3362] |  | 0.01 to 10 |  |
| O=C(NCCc1cccnc1)C(=O)NCC[C@H](NC(=O)c1ccc(Nc2nc(NC3(c4ccc(Cl)cc4)CC3)nc(OCC(F)(F)F)n2)cc1)C(=O)O [Compound 1337] | 0.01 to 10 |  |  |
| Cc1ccc(-c2ccc(NC(=O)C(=O)NCCC(NC(=O)c3ccc(Nc4nc(NC5(c6ccc(Cl)cc6)CC5)nc(OCC(F)(F)F)n4)cc3)C(=O)O)cc2)cc1 (stereo not shown) [Compound 3526] |  | 0.01 to 10 |  |
| CC(C)(CNC(=O)C(=O)NCc1ccc(-c2ccccc2)cc1)CNC(=O)c1ccc(Nc2nc(NC3(c4ccc(Cl)cc4)CC3)nc(OCC(F)(F)F)n2)cc1 [Compound 3017] |  | 0.01 to 10 |  |
| COC(=O)[C@H](CCNC(=O)C(=O)Nc1ccc(F)c(F)c1)NC(=O)c1ccc(Nc2nc(NC3(c4ccc(Cl)cc4)CC3)nc(OCC(F)(F)F)n2)cc1 [Compound 1505] | 0.01 to 10 |  |  |
